What was measured:
Assay in all cases: biochemical
Parameters in all cases: Kinase selectivity panel of 81 human kinases, ADP-Glo or HTRF, per cent inhibition at 1 uM
[1] = target: AXL (Homo sapiens, UniProt P30530)
Procedure, shortened: (§1)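 Kinase-panel selectivity profiling of 81 kinases with compound at 1000 nM.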

[2] = target: BRSK2 (Homo sapiens, UniProt Q8IWQ3)
Procedure, shortened: as §1

[3] = target: CDK1/CycE1 (Homo sapiens, UniProt P06493)
Procedure, shortened: as §1

[4] = target: T1, CK1α (Homo sapiens, UniProt P48729)
T1 construct: gene CSNK1A1
Procedure, shortened: as §1

[5] = target: T2, CK2α1/β (Homo sapiens, UniProt P68400)
T2 construct: gene CSNK2A1
Procedure, shortened: as §1

[6] = target: DAPK1 (Homo sapiens, UniProt P53355)
DAPK1, sequence (P53355 whole entry): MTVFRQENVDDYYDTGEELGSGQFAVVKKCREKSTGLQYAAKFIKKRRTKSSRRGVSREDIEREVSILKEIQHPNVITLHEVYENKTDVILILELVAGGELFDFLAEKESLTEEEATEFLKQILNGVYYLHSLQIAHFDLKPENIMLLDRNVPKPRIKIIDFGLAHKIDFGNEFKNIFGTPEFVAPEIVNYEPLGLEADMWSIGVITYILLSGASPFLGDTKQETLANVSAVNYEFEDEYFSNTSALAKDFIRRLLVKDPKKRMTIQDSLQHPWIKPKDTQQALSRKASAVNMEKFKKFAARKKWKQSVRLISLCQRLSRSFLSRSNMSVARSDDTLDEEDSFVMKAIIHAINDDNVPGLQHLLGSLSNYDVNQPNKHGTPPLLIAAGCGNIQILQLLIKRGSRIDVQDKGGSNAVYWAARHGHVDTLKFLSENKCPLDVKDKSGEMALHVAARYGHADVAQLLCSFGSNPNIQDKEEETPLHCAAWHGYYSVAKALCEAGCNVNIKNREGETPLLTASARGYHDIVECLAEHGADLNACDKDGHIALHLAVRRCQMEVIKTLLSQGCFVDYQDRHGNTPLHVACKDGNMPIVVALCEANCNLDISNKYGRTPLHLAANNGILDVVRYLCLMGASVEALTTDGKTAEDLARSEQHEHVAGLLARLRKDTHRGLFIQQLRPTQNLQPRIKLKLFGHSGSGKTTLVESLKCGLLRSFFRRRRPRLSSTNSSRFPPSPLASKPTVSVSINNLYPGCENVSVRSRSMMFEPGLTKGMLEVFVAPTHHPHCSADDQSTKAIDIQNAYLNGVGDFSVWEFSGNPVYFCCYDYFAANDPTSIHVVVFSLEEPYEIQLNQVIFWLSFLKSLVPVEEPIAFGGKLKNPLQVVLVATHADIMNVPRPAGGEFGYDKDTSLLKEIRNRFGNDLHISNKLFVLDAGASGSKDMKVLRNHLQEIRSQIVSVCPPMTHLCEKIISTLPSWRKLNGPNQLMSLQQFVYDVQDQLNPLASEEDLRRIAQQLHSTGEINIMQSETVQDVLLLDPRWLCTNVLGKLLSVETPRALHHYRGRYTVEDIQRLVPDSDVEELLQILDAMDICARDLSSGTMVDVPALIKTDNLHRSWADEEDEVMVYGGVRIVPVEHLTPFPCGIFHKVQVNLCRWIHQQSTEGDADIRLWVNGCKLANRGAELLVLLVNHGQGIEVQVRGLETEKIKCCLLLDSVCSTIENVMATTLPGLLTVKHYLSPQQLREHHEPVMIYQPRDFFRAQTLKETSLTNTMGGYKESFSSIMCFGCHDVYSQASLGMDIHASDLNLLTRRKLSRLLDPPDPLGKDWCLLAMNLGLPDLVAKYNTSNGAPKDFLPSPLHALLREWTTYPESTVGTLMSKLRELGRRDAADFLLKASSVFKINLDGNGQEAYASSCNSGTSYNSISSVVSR
Procedure, shortened: as §1

[7] = target: IGF1R (Homo sapiens, UniProt P08069)
Procedure, shortened: as §1

[8] = target: JAK3 (Homo sapiens, UniProt P52333)
Procedure, shortened: as §1

[9] = target: KDR (Homo sapiens, UniProt P35968)
Procedure, shortened: as §1

[10] = target: T3, PEK (Homo sapiens, UniProt Q9NZJ5)
T3 construct: gene EIF2AK3
T3 sequence (Q9NZJ5 whole entry): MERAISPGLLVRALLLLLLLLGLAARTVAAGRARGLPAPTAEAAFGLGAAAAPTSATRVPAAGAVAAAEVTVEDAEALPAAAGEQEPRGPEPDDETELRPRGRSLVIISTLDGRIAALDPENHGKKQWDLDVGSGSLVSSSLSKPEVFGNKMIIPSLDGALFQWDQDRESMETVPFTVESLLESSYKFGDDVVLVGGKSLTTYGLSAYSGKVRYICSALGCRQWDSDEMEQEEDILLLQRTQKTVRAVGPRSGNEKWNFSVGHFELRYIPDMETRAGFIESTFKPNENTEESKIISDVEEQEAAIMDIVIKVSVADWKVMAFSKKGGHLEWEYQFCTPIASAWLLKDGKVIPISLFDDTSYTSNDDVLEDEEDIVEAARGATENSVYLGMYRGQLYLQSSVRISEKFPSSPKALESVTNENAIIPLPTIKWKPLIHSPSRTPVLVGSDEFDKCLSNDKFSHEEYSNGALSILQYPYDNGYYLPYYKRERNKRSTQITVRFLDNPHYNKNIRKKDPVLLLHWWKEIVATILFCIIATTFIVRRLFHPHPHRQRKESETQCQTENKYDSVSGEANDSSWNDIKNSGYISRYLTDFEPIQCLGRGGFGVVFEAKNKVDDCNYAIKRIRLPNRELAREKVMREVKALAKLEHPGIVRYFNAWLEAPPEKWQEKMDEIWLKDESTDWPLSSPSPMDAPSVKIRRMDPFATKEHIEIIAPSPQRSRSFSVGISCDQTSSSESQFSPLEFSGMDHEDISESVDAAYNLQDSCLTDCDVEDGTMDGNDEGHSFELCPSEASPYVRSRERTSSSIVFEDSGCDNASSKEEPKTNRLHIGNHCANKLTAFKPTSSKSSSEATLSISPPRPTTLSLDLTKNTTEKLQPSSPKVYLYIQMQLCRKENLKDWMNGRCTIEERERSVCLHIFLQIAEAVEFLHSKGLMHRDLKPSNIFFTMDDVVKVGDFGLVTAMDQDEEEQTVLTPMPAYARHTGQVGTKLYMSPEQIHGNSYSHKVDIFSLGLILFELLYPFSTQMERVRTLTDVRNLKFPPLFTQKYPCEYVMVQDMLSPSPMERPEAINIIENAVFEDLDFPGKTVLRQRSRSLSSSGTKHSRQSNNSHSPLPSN
Procedure, shortened: as §1

[11] = target: T4, PKACα (Homo sapiens, UniProt P17612)
T4 construct: gene PRKACA
Procedure, shortened: as §1

[12] = target: PLK2 (Homo sapiens, UniProt Q9NYY3)
Procedure, shortened: as §1

[13] = target: T5, TSSK1 (Homo sapiens, UniProt Q9BXA7)
T5 construct: gene TSSK1B
Procedure, shortened: as §1

[14] = target: WEE1 (Homo sapiens, UniProt P30291)
WEE1, sequence (P30291 whole entry): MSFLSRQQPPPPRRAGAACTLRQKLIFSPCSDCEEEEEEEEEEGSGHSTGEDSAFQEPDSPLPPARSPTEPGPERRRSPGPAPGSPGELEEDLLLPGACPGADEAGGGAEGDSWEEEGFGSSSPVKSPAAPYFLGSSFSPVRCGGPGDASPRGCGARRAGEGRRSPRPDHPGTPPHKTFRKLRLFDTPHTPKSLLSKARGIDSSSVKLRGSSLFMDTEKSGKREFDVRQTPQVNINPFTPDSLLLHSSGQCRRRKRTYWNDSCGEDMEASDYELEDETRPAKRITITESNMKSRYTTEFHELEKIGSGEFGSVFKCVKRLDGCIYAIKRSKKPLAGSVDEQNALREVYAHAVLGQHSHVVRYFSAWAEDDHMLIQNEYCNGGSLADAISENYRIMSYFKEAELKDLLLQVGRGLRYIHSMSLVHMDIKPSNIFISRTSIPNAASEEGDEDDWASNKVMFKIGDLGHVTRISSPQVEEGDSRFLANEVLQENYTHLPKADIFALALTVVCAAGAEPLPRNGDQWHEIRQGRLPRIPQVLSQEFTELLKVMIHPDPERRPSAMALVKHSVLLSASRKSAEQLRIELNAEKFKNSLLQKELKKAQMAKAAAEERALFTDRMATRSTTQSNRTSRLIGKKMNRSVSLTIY
Procedure, shortened: as §1

AXL, sequence (P30530 whole entry): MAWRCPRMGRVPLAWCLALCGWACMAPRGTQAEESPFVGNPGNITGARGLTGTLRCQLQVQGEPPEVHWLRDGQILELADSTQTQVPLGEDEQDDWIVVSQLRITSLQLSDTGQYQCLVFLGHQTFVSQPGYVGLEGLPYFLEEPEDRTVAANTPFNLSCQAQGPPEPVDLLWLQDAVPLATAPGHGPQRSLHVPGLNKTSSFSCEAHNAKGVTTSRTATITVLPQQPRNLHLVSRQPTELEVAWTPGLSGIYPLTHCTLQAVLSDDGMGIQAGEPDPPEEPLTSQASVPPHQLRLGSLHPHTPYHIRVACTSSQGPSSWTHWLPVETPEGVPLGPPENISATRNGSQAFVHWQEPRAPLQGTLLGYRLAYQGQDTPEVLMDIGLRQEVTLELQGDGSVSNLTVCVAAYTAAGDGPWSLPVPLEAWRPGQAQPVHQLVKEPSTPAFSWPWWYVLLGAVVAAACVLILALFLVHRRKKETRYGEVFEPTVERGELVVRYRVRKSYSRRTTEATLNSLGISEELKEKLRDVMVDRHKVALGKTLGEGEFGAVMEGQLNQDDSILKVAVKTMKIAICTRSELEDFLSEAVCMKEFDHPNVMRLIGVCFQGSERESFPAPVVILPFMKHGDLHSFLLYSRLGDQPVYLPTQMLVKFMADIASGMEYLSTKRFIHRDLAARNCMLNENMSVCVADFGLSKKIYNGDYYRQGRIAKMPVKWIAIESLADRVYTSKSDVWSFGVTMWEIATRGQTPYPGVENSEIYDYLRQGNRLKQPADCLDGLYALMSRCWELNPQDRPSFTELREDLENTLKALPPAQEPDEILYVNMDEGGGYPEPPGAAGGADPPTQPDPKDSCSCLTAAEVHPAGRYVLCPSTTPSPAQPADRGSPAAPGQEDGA
BRSK2, sequence (Q8IWQ3 whole entry): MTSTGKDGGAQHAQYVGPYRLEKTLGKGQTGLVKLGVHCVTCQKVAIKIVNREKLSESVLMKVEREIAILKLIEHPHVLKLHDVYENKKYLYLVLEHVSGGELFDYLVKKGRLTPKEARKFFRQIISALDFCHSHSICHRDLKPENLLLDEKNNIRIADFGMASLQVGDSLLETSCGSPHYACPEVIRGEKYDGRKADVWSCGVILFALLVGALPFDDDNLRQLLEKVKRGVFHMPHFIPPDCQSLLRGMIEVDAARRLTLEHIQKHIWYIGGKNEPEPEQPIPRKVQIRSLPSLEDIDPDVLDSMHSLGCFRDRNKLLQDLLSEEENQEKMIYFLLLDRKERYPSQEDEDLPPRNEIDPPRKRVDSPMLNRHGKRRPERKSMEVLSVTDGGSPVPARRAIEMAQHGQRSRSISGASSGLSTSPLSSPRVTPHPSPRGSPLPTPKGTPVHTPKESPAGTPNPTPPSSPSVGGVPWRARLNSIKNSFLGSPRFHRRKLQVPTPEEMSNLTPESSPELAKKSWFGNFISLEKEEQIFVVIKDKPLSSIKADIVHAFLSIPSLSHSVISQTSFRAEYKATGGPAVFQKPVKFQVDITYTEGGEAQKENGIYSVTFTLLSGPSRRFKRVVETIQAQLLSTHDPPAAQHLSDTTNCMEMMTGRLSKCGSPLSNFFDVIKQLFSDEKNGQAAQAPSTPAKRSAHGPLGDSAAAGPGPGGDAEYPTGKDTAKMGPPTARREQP

SMILES: Nc1cn2cc(-c3cnc4c(c3)N(C(=O)OC3CCCCC3)CCO4)ccc2n1 [Zharp1-163]
- inhibition at 1 µM ([1]; replicate Data1): 10.9%
- inhibition at 1 µM ([1]; replicate Data2): 1.24%
- inhibition at 1 µM ([2]; replicate Data1): -6.15%
- inhibition at 1 µM ([2]; replicate Data2): -3.32%
- inhibition at 1 µM ([3]; replicate Data1): 5.77%
- inhibition at 1 µM ([3]; replicate Data2): 6.95%
- inhibition at 1 µM ([4]; replicate Data1): -4.65%
- inhibition at 1 µM ([4]; replicate Data2): -16.6%
- inhibition at 1 µM ([5]; replicate Data1): -12.2%
- inhibition at 1 µM ([5]; replicate Data2): 5.04%
- inhibition at 1 µM ([6]; replicate Data1): 9.17%
- inhibition at 1 µM ([6]; replicate Data2): -5.62%
- inhibition at 1 µM ([7]; replicate Data1): -8.23%
- inhibition at 1 µM ([7]; replicate Data2): -5.7%
- inhibition at 1 µM ([8]; replicate Data1): -1.37%
- inhibition at 1 µM ([8]; replicate Data2): 7.33%
- inhibition at 1 µM ([9]; replicate Data1): -2.59%
- inhibition at 1 µM ([9]; replicate Data2): -4.74%
- inhibition at 1 µM ([10]; replicate Data1): 1.73%
- inhibition at 1 µM ([10]; replicate Data2): 19.4%
- inhibition at 1 µM ([11]; replicate Data1): -0.64%
- inhibition at 1 µM ([11]; replicate Data2): 3.94%
- inhibition at 1 µM ([12]; replicate Data1): -2.91%
- inhibition at 1 µM ([12]; replicate Data2): -19.7%
- inhibition at 1 µM ([13]; replicate Data1): -0.22%
- inhibition at 1 µM ([13]; replicate Data2): 2.05%
- inhibition at 1 µM ([14]; replicate Data1): 9.26%
- inhibition at 1 µM ([14]; replicate Data2): 4.33%
